Patent US6855723B2, “Methods of modulating serine/threonine protein kinase function with azabenzimidazole-based compounds” (Zentaris GmbH, priority 1997, dated 2005)
Where two headings read alike, the source gives them in different places.

Experiments:
[1] = molecular target: T1, RAF-1 (Homo sapiens, UniProt P04049); experiment: RAF-1 ELISA assay (RAF-1 phosphorylation of MEK and MAPK); format: biochemical; details: RAF-1 phosphorylation assay, lysates from RAS/RAF infected Sf9 cells, T-MEK and His-MAPK substrates
T1 construct: made in house; host or cells: Sf9 (Spodoptera frugiperda) insect cells co-infected with RAS and RAF recombinant baculoviruses
Source text: Assay Measuring Phosphorylating Function of RAF
The following assay reports the amount of RAF-catalyzed phosphorylation of its target protein MEK as well as MEK's target MAPK. The RAF gene sequence is described in Bonner et al., 1985, Molec. Cell. Biol. 5: 1400-1407, and is readily accessible in multiple gene sequence data banks. Construction of the nucleic acid vector and cell lines utilized for this portion of the invention are fully described in Morrison et al., 1988, Proc. Natl. Acad. Sci. USA 85: 8855-8859.
All of the following steps were conducted at room temperature unless specifically indicated.
1. ELISA plate coating: ELISA wells are coated with 100 μL of Sheep anti mouse affinity purified antiserum (1 μg/100 μL coating buffer) over night at 4° C. […]
11. […] Insert the holder into radioactive detection apparatus and quantify the radioactive phosphorous on the filter mats.
Alternatively, 40 μL aliquots from individual wells of the assay plate can be transferred to the corresponding Positions on the phosphocellulose filter mat. […] Insert the holder into a detection device and quantify the radioactive phosphorous on the filter mats.
IC50 values were measured according to the protocol for the following azabenzimidazole-based compounds in the RAF-1 ELISA assay: [drawing 5] […] The IC50 values measured in the RAF-1 phosphorylation assay are depicted in Table 1: […]

[2] = molecular target: T2, EGF Receptor (Homo sapiens, UniProt P00533); experiment: EGF receptor phosphorylation assay in whole cells (EGFR-NIH3T3 assay); format: cell-based; details: EGF receptor kinase activity in whole cells
T2 construct: expressed in transfected cells; host or cells: NIH3T3 cells (EGFR-NIH3T3)
Method: Assay Measuring Phosphorylating Function of EGF Receptor
EGF Receptor kinase activity (EGFR-NIH3T3 assay) in whole cells was measured as described in detail in PCT Publication WO9640116, filed Jun. 5, 1996, by Tang et al., and entitled “Indolinone Compounds for the Treatment of Disease,” incorporated herein by reference in its entirety, including any drawings.
The IC50 values measured in the EGF receptor phosphorylation assay are depicted in Table 2: […]

[3] = tested on: 3T3/H-Ras (NIH 3T3 clone 7 cells expressing genomic fragment of oncogenic H-Ras); experiment: Growth of NIH 3T3 cells over expressing H-Ras (SRB); format: cell-based; details: Mus musculus, NIH3T3, 72 h; cell growth, 2% calf serum, 3 days incubation
Method: Assay Measuring the Effect of Azabenzimidazole-Based Compounds on the Growth of Cells Expression RAS
The following assay measures growth rates for NIH-3T3 cells expressing RAS. The purpose of the assay is to determine the effects of compounds on the growth of NIH 3T3 cells over expressing H-Ras.
(§1) • 96-well flat bottom sterile plates • 96-well round bottom sterile plates • sterile 25 mL or 100 mL reservoir • pipets, multi-channel pipetman • sterile pipet tips • sterile 15 mL and 50 mL tubes Reagents • 0.4% SRB in 1% acetic acid • 10 mM Tris base • 10% TCA • 1% acetic acid • sterile DMSO (Sigma) • compound in DMSO (100 mM or less stock solution) • Trypsin-EDTA (GIBCO BRL) Cell Line • 3T3/H-Ras (NIH 3T3 clone 7 cells expressing genomic fragment of oncogenic H-Ras).
The cells can be constructed using the following protocol: • 1. Subclone a gene fragment encoding Ras into a commercially available vector that will stably transfect NIH-3T3 cells. The fragment is from the genomic transforming allele of cHa-ras. • 2. Transfect NIH-3T3 cells with the subcloned vector by a calcium phosphate method. Select cells expressing the Ras construct in 2% serum in DMEM. Visible foci are observed after 2 weeks. Pool the transformed cells to generate a stably transformed cell line. […]
6. Read plates on Dynatech ELISA Plate REader at 570 nm with reference at 630 nm.

[4] = tested on: A549 human lung carcinoma cells; experiment: Growth of A549 cells (SRB); format: cell-based; details: cell growth
Method: Assay Measuring Effect of Azabenzimidazole-Based Compounds on Growth of A549 Cells
The following assay measures growth rates for A549 cells. The purpose of the assay is to determine the effects of compounds on the growth of A549 human lung carcinoma cells. A549 cells are readily accessible from commercial sources, such as ATCC (CCL185).
as §1, with “tips” for “tips •”, “Line and Growth Medium” for “Line”, “A549 human lung carcinoma” for “3T3/H-Ras (NIH 3T3 clone 7”, “(ATCC CCL185) • 10% fetal calf serum in Ham's F12-K Protocol Day 0: Cell Plating This part” for “expressing genomic fragment”, “assay is carried out in a laminar flow hood.” for “oncogenic H-Ras).”
1. Trypsinize cells. Transfer 200 μL of cell suspension to 10 mL of isotone. Count cells with a Coulter Counter.
2. Dilute cells in growth medium to 20,000 cell/mL. Transfer 100 μL of cells to each well in a 96-well flat bottom plate to give 2000 cells/well.
3. Use half of plate (4 rows) for each compound and quadruplicate wells for each compound concentration, and a set of 4 wells for medium control.
4. […]
6. Read plates on Dynatech ELISA Plate Reader at 570 nm with reference at 630 nm.

T1 sequence (P04049 whole entry): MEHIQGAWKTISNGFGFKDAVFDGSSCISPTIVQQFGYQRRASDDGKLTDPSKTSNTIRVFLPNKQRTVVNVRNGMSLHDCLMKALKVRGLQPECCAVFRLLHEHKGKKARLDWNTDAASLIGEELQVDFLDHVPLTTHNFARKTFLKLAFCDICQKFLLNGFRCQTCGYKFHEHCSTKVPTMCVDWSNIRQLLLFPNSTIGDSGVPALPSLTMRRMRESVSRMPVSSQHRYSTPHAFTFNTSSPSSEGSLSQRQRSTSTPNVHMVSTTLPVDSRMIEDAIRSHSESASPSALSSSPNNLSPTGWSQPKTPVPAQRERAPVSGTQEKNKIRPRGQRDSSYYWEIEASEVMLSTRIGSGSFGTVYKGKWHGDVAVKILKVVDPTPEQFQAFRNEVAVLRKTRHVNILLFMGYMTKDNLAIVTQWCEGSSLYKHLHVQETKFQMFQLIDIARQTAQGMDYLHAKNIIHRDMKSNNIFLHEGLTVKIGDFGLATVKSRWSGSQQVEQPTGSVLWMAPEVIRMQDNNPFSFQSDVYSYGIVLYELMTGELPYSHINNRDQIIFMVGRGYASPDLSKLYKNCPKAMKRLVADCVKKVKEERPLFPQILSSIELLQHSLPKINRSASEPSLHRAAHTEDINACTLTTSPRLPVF
T2 sequence (P00533 25-1210): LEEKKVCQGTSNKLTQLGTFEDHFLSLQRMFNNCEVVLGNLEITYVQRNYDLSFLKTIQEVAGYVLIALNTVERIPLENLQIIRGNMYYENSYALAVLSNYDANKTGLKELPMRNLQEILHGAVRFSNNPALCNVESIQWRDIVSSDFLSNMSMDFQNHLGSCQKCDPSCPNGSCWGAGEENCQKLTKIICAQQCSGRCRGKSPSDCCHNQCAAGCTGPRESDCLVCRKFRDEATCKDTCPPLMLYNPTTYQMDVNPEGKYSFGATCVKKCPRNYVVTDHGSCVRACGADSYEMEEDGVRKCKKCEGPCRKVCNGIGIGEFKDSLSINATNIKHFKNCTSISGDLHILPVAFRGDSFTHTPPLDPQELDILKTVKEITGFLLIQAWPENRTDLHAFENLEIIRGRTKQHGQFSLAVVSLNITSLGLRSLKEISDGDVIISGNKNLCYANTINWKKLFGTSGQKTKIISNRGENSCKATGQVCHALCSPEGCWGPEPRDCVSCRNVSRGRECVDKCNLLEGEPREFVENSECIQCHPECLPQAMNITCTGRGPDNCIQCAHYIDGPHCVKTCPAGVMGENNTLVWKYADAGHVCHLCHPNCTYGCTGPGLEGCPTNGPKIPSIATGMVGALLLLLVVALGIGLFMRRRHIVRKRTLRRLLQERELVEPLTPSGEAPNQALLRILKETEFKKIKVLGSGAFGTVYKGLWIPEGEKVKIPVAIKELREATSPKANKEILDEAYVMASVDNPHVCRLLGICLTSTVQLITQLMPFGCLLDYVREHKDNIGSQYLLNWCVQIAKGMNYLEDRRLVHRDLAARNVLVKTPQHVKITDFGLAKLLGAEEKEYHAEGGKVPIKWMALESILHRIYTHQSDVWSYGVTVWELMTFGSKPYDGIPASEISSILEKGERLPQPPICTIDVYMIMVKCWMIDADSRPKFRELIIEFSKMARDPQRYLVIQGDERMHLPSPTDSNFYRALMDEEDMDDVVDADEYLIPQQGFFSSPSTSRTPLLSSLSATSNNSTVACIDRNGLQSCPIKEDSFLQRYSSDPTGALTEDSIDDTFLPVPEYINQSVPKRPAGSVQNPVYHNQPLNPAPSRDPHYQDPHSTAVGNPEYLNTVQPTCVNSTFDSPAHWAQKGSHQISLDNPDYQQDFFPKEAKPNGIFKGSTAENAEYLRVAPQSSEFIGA

IC50 [1]: 6.1 µM
IC50 [2]: > 100 µM
IC50 ([4]; 2% FBS, read-out: IC50 (μM) A549 (2% FBS)): 65 µM
IC50 ([4]; 10% fetal calf serum in Ham's F12-K, read-out: IC50 (μM) A549): 22 µM
melting point: > 280 °C (dec.)
Compound: COC(=O)Nc1nc2ccc(Oc3ccccc3)nc2[nH]1 [Compound A-3]
IC50 [3]: 40 µM
